# Experimental data from ChEMBL document CHEMBL5247657 (J Med Chem, 2023).
# Legend:
# [1] = Half-life in Beagle dog at 1 mg/kg, iv measured upto 24 hrs by LC-MS/MS analysis; assay type: ADME, organism-based, Canis lupus familiaris; conditions: in vivo
# in vivo [2] = conditions: Beagle, dog, po
# [3] = Tmax in Beagle dog at […], po measured upto 24 hrs by LC-MS/MS analysis; assay type: ADME, organism-based, Canis lupus familiaris; conditions: in vivo, dose 2.5 mg/kg
# [4] = Volume of distribution at steady state in Sprague-Dawley rat at 1 mg/kg, iv measured upto 24 hrs by LC-MS/MS analysis; assay type: ADME, organism-based; conditions: in vivo, read-out: Vdss
# in vivo [5] = conditions: Beagle, dog, iv, 1 mg/kg
# in vivo [6] = conditions: Sprague-Dawley, rat, po, 5 mg/kg
# [7] = Tmax in Sprague-Dawley rat at 5 mg/kg, po measured upto 24 hrs by LC-MS/MS analysis; assay type: ADME, organism-based; conditions: in vivo
# in vivo [8] = conditions: Beagle, dog, po; remark: listed apart in the source
# [9] = Half-life in Sprague-Dawley rat at 1 mg/kg, iv measured upto 24 hrs by LC-MS/MS analysis; assay type: ADME, organism-based; conditions: in vivo
# [10] = Volume of distribution at steady state in Beagle dog at 1 mg/kg, iv measured upto 24 hrs by LC-MS/MS analysis; assay type: ADME, organism-based, Canis lupus familiaris; conditions: in vivo, read-out: Vdss
# in vivo [11] = conditions: Beagle, dog, po; remark: listed apart in the source
smiles,measurement,setting,value
C=CC(=O)N1CCC([C@@H]2CCNc3c(C(N)=O)c(-c4cc(OC)c(C)c(OC)c4)nn32)CC1,half-life,[1],150 min
same,AUC(0-inf) at 24 h,in vivo [2],2640 ng·h/mL
same,Tmax at 24 h,[3],25.2 min
same,Vd,[4],0.9 L/kg
same,clearance at 24 h,in vivo [5],6.89 mL/min/kg
same,AUC(0-inf) at 24 h,in vivo [6],964 ng·h/mL
same,Tmax,[7],15 min
same,bioavailability at 24 h,in vivo [8],43%
same,half-life,[9],36 min
same,Vd,[10],0.74 L/kg
same,Cmax at 24 h,in vivo [11],1250 ng/mL
